Reference: ChEMBL document CHEMBL3525956, “Species independence in brain tissue binding using brain homogenates” (Drug Metab Dispos, 2011)

Tests used:
[1] = Fraction unbound in Wistar Han rat brain homogenates at 1 uM after 6 hrs by equilibrium dialysis method; conditions: brain homogenate
[2] = Fraction unbound in Beagle dog brain homogenates at 1 uM after 6 hrs by equilibrium dialysis method; conditions: brain homogenate
[3] = Fraction unbound in Hartley guinea pig brain homogenates at 1 uM after 6 hrs by equilibrium dialysis method; conditions: brain homogenate
[4] = Fraction unbound in Sprague-Dawley rat brain homogenates at 1 uM after 6 hrs by equilibrium dialysis method; conditions: brain homogenate
[5] = Fraction unbound in cynomolgus monkey brain homogenates at 1 uM after 6 hrs by equilibrium dialysis method; conditions: brain homogenate
[6] = Fraction unbound in human occipital cortex at 1 uM after 6 hrs by equilibrium dialysis method
[7] = Fraction unbound in CD-1 mouse brain homogenates at 1 uM after 6 hrs by equilibrium dialysis method; conditions: brain homogenate

| Structure (SMILES) | fraction unbound at 6 h, 1 µM [1] | fraction unbound at 6 h, 1 µM [2] | fraction unbound at 6 h, 1 µM [3] | fraction unbound at 6 h, 1 µM [4] | fraction unbound at 6 h, 1 µM [5] | fraction unbound at 6 h, 1 µM [6] | fraction unbound at 6 h, 1 µM [7] |
| --- | --- | --- | --- | --- | --- | --- | --- |
| Cc1ccc(C(=O)c2cc(O)c(O)c([N+](=O)[O-])c2)cc1 [TOLCAPONE] | 0.001 | 0.05 | 0.002 | 0.007 | 0.003 | 0.003 | 0.002 |
| CN1[C@@H]2CC[C@H]1C[C@@H](OC(=O)c1c[nH]c3ccccc13)C2 [TROPISETRON] | 0.056 | 0.047 | 0.048 | 0.045 | 0.064 | 0.053 | 0.059 |
| CC(C)(C)NCC(O)COc1ccc(NC(=O)NC2CCCCC2)cc1 (centres undefined) [TALINOLOL] | 0.141 | 0.247 | 0.117 | 0.096 | 0.176 | 0.137 | 0.117 |
| NC(=O)N1c2ccccc2C=Cc2ccccc21 [CARBAMAZEPINE] | 0.171 | 0.159 | 0.128 | 0.124 | 0.185 | 0.171 | 0.173 |
| COc1ccc2c(c1)c(CC(=O)O)c(C)n2C(=O)c1ccc(Cl)cc1 [INDOMETHACIN] | 0.044 | 0.035 | 0.044 | 0.028 | 0.053 | 0.055 | 0.052 |
| CC(C)C[C@H]1C(=O)N2CCC[C@H]2[C@]2(O)O[C@](NC(=O)[C@@H]3C=C4c5cccc6[nH]c(Br)c(c56)C[C@H]4N(C)C3)(C(C)C)C(=O)N12 [BROMOCRIPTINE] | 0.002 | 0.002 | 0.002 | 0.001 | 0.002 | 0.002 | 0.002 |
| Fc1ccc([C@@H]2CCNC[C@H]2COc2ccc3c(c2)OCO3)cc1 [PAROXETINE] | 0.004 | 0.004 | 0.003 | 0.006 | 0.006 | 0.005 | 0.004 |
| CN[C@H]1CC[C@@H](c2ccc(Cl)c(Cl)c2)c2ccccc21 [SERTRALINE] | – | – | – | – | – | 0.001 | – |
| CN1Cc2c(N)cccc2C(c2ccccc2)C1 (centres undefined) [NOMIFENSINE] | 0.066 | 0.072 | 0.068 | 0.064 | 0.068 | 0.071 | 0.078 |
| CCN(C)C(=O)Oc1cccc([C@H](C)N(C)C)c1 [RIVASTIGMINE] | 0.338 | 0.487 | 0.389 | 0.241 | 0.316 | 0.345 | 0.341 |
| CCCNC(=O)NS(=O)(=O)c1ccc(Cl)cc1 [CHLORPROPAMIDE] | 0.223 | – | 0.65 | 0.668 | 0.699 | 0.583 | 0.441 |
| COC(=O)C1=C(C)NC(C)=C(C(=O)OCCN(C)Cc2ccccc2)C1c1cccc([N+](=O)[O-])c1 (centres undefined) [NICARDIPINE] | 0.005 | 0.006 | 0.004 | 0.008 | 0.006 | 0.006 | 0.004 |
| NS(=O)(=O)Cc1noc2ccccc12 [ZONISAMIDE] | 0.327 | 0.428 | 0.389 | 0.598 | 0.386 | 0.308 | 0.299 |
| NC12CC3CC(CC(C3)C1)C2 [AMANTADINE] | 0.213 | 0.218 | 0.178 | 0.147 | 0.1 | 0.171 | 0.181 |
| COCCOC(=O)C1=C(C)NC(C)=C(C(=O)OC(C)C)C1c1cccc([N+](=O)[O-])c1 (centres undefined) [NIMODIPINE] | 0.01 | 0.007 | 0.007 | 0.009 | 0.009 | 0.008 | 0.007 |
| Cc1c(C(=O)NN2CCCCC2)nn(-c2ccc(Cl)cc2Cl)c1-c1ccc(Cl)cc1 [RIMONABANT] | 0.0004 | 0.0005 | 0.0004 | 0.0006 | 0.0006 | 0.0005 | 0.0004 |

| Structure (SMILES) | fraction unbound at 6 h, 1 µM [1] | fraction unbound at 6 h, 1 µM [2] | fraction unbound at 6 h, 1 µM [3] | fraction unbound at 6 h, 1 µM [4] | fraction unbound at 6 h, 1 µM [5] | fraction unbound at 6 h, 1 µM [6] | fraction unbound at 6 h, 1 µM [7] |
| --- | --- | --- | --- | --- | --- | --- | --- |
| CN(C)CCCN1c2ccccc2Sc2ccc(Cl)cc21 [CHLORPROMAZINE] | 0.003 | 0.003 | 0.003 | 0.002 | 0.004 | 0.003 | 0.003 |
| C[C@@H](O[C@H]1OCCN(Cc2n[nH]c(=O)[nH]2)[C@H]1c1ccc(F)cc1)c1cc(C(F)(F)F)cc(C(F)(F)F)c1 [APREPITANT] | 0.001 | 0.001 | 0.001 | 0.001 | 0.002 | 0.001 | 0.002 |
| CCCc1nc2c(C)cc(-c3nc4ccccc4n3C)cc2n1Cc1ccc(-c2ccccc2C(=O)O)cc1 | 0.013 | 0.011 | 0.008 | 0.017 | 0.013 | 0.014 | 0.01 |
| CC(=O)CC(c1ccccc1)c1c(O)c2ccccc2oc1=O (centres undefined) [WARFARIN] | 0.183 | 0.384 | 0.326 | 0.199 | 0.318 | 0.295 | 0.094 |
| CC(CC(c1ccccc1)c1ccccc1)NC(C)(C)C (centres undefined) [TERODILINE] | 0.025 | 0.148 | 0.059 | 0.02 | 0.071 | 0.028 | 0.049 |
| CCCCN1CCCCC1C(=O)Nc1c(C)cccc1C (centres undefined) [BUPIVACAINE] | 0.15 | 0.211 | 0.204 | 0.098 | 0.195 | 0.232 | 0.274 |
| CCN(CC)C(=O)/C(C#N)=C/c1cc(O)c(O)c([N+](=O)[O-])c1 [ENTACAPONE] | 0.021 | 0.02 | 0.019 | 0.017 | 0.031 | 0.025 | 0.026 |
| Cc1nc2n(c(=O)c1CCN1CCC(c3noc4cc(F)ccc34)CC1)CCCC2O (centres undefined) [PALIPERIDONE] | 0.092 | 0.126 | 0.101 | 0.078 | 0.1 | 0.116 | 0.129 |
| CNCCCN1c2ccccc2CCc2ccccc21 [DESIPRAMINE] | 0.013 | 0.017 | 0.007 | 0.008 | 0.012 | 0.011 | 0.011 |
| CN(C)CCCN1c2ccccc2CCc2ccc(Cl)cc21 [CLOMIPRAMINE] | 0.004 | 0.004 | 0.003 | 0.003 | 0.006 | 0.004 | 0.004 |
| CCCCCCCN(CC)CCCC(O)c1ccc(NS(C)(=O)=O)cc1 (centres undefined) [IBUTILIDE] | 0.104 | 0.119 | 0.075 | 0.081 | 0.078 | 0.091 | 0.114 |
| CC(NC(C)(C)C)C(=O)c1cccc(Cl)c1 (centres undefined) [BUPROPION] | 0.132 | 0.213 | 0.177 | 0.171 | 0.167 | 0.195 | 0.133 |
| CNCCC=C1c2ccccc2CCc2ccccc21 [NORTRIPTYLINE] | 0.007 | 0.007 | 0.006 | 0.005 | 0.009 | 0.006 | 0.008 |
| CCN(CC)CCNC(=O)c1cc(Cl)c(N)cc1OC [METOCLOPRAMIDE] | 0.224 | 0.294 | 0.237 | 0.145 | 0.413 | 0.295 | 0.23 |
| CN1CCCC(n2nc(Cc3ccc(Cl)cc3)c3ccccc3c2=O)CC1 (centres undefined) [AZELASTINE] | 0.012 | 0.011 | 0.009 | 0.009 | 0.014 | – | 0.012 |
